Hepatic content data for two molecules are collected here from patent publication US10506808B2, “Composition and rodenticide bait comprising difethialone and method for controlling target rodent pests” (priority 2015, dated 2019).

The format of data set [1] is in vivo, Rattus norvegicus. Conditions: about 3.4 mg/kg difethialone per os (40% homo-, 60% hetero-stereoisomer, each racemic), mean of six rats. The protocol: About 0.525 g (±0.025 g) of rat liver is weighed out accurately and placed in a 50 mL polypropylene tube. 10 mL of acetone are added and the suspension is homogenized using an Ultra-Turrax® homogenizer/disperser for a time of about 30 seconds. The homogenizer/disperser shaft is rinsed with hot water and then twice with 20 mL of acetone in a polypropylene tube. The homogenate is centrifuged for 5 minutes at a centrifugation speed of 3000 rpm (revolutions per minute). The supernatant is collected and transferred into a test tube. The sample is subjected to evaporation under a stream of nitrogen (N2) at a temperature of 40° C. so as to form a dry extract.
1 mL of acetonitrile is added to the tube containing the dry extract so as to dissolve it. The acetonitrile solution is washed twice successively with 1 mL of hexane. The lipid-free extract is dried under a stream of nitrogen (N2) at a temperature of 40° C. and is then taken up in 0.5 mL of methanol and dissolved by vortex stirring. 0.5 mL of ultra-pure (Milli-Q) water is then added. The sample is vortex-homogenized.
1 mL of dichloromethane, then 1 mL of methanol, then 1 mL of ultra-pure (Milli-Q) water are passed through an Oasis HLB 1 cc cartridge (WAT094225, Waters). The lipid-free liver extract (1 mL of MeOH/Milli-Q H2O) containing difethialone is then loaded onto the top of the cartridge so that the liver extract penetrates through the cartridge by gravity on contact with the solid phase. 1 mL of washing solution formed from methanol and ultra-pure water in a 90/10 volume proportion is then loaded onto the top of the cartridge. The cartridge is dried by suction under vacuum connected to the bottom of the cartridge. 1 mL of eluting solution formed from dichloromethane and methanol in a 90/10 volume proportion is then loaded onto the top of the cartridge and an eluate comprising difethialone is collected at the bottom of the cartridge. The solvent of the eluate is evaporated off under a stream of nitrogen (N2) at a temperature of 40° C. The sample is taken up in 0.5 mL of acetonitrile and the acetonitrile solution containing difethialone is filtered through a 0.2 μm filter.
The composition is analysed by high-pressure liquid chromatography on a chiral column as described in point A2) above.
A solution of a mixture of homo-stereoisomer (DFN-Homo-SI) and of hetero-stereoisomer (DFN-Hetero-SI) of difethialone in a mixture of vegetable oil and 5% DMSO is administered by tube-feeding (“per os”) to 8-week-old coumaphen-sensitive rats (male and female Rattus norvegicus) weighing about 200 g. The molar proportion of homo-stereoisomer is 40% and the molar proportion of hetero-stereoisomer is 60%. Each configurational stereoisomer of difethialone is formed from a racemic mixture of the two enantiomers of said corresponding configurational stereoisomer.
On D0, a tube-feeding solution is administered to each rat so that the amount of difethialone ingested by each rat is about 3.4 mg per kilogram of rat. To avoid haemorrhage, the rats are also treated daily by subcutaneous administration of a dose of vitamin K1 (as haemorrhage antidote) at a rate of […] per 200 g of live rat weight.
At 4 hours (H+4), 9 hours (H+9), 24 hours (H+24), 120 hours (H+120), 168 hours (H+168) and 216 hours (H+216) after tube-feeding, three male rats and three female rats anaesthetized beforehand with isoflurane are euthanized, the liver of the euthanized rats is removed, the difethialone is then extracted from the liver, the amount of each of the configurational stereoisomers of difethialone is assayed, the area under the peaks in the chromatogram obtained is measured and each configurational stereoisomer is quantified by comparison with a calibration curve. […]

The format of data set [2] is in vivo, Rattus norvegicus. Conditions: 48 hours after tube-feeding; about 3.4 mg/kg difethialone per os (40% homo-, 60% hetero-stereoisomer, each racemic); mean of six rats.
Where [3] appears, read: 4 hours after tube-feeding, daily vitamin K1.

Like-named read-outs stand apart in the source and are kept apart here.

Take `Oc1c(C2CC(c3ccc(-c4ccc(Br)cc4)cc3)Cc3ccccc32)c(=S)oc2ccccc12` (single isomer, unassigned) [DFN-Homo-dextro, 3-(4′-bromobiphenyl-4-yl)-1-(4-hydroxythiocoumarin-3-yl)-1,2,3,4-tetrahydronaphthalene]: the Hepatic content in data set [1] (setting [3]) is given as 4566 ng/g; in data set [1] (9 hours after tube-feeding), 4692.5 ng/g; in data set [1] (24 hours after tube-feeding), 1243.5 ng/g; in data set [1] (120 hours after tube-feeding), 192.5 ng/g; in data set [1] (168 hours after tube-feeding), 129 ng/g; in data set [1] (216 hours after tube-feeding), 77.5 ng/g. Moreover, the Hepatic content in data set [2] was determined as 720.5 ng/g.
With `Oc1c(C2CC(c3ccc(-c4ccc(Br)cc4)cc3)Cc3ccccc32)c(=S)oc2ccccc12` (single isomer, unassigned) [DFN-Hetero-dextro, 3-(4′-bromobiphenyl-4-yl)-1-(4-hydroxythiocoumarin-3-yl)-1,2,3,4-tetrahydronaphthalene], the Hepatic content in data set [1] (setting [3]) was 10589.5 ng/g; in data set [1] (9 hours after tube-feeding), 12155.5 ng/g; in data set [1] (24 hours after tube-feeding), 8102 ng/g; in data set [1] (120 hours after tube-feeding) it was 5431.5 ng/g; in data set [1] (168 hours after tube-feeding), 3011 ng/g; in data set [1] (216 hours after tube-feeding), 4030.5 ng/g. This molecule also yielded a Hepatic content in data set [2] of 7974.5 ng/g.
